In US20040091937A1, “Use of fluorine NMR for high throughput screening” (priority 2002, published 2004):
“And” between values parts separate entries of the source, which are not always exact repeats. Equal values may be shown once. Where a name gives a salt, the structure may show the parent alone.

Columns and labels:
human serum albumin [1] = biological target: T1, human serum albumin (Homo sapiens, UniProt P02768); test: 19F NMR spin-echo competition binding screening against HSA with spy molecule (3) and control molecule (2)
T1 sequence (P02768 25-609): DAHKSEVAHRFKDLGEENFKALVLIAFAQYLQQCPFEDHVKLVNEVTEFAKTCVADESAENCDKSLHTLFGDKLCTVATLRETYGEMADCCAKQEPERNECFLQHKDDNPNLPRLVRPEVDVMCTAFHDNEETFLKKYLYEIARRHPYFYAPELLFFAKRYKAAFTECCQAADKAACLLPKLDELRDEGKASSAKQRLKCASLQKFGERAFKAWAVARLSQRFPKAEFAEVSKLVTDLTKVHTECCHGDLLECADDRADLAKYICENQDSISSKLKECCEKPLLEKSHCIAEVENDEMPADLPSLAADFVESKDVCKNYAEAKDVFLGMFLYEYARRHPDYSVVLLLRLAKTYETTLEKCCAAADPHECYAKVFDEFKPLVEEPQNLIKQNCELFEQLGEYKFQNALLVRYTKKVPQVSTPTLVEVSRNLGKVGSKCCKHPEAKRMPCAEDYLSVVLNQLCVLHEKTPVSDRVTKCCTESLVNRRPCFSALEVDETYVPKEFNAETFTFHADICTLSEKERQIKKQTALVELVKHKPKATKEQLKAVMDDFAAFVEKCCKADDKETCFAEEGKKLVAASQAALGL
Protocol: (§1) D2O was added to the solution (8% final concentration) for the lock signal.
A dual coil {^19F}-{^1H} probe was used with the inner coil tuned to ^19F and the outer coil tuned to ^1H frequency. […] These signals are broad and therefore are not visible in the spectra of the reference and control molecule recorded with a spin-echo scheme. All the spectra were recorded with a weak Waltz-16 proton decoupling applied during the acquisition period. Typically 4-8 dummy scans were recorded for temperature equilibration. Carr-Purcell-Meibom-Gill schemes of different length and long 2τ interval were used before the acquisition period. Chemical shifts were referenced to trifluoroacetic acid.
These techniques also provide the number of binding sites (n) for the reference molecule a parameter that is very important for the competition binding experiments.
For screening, a total spin-echo period (2nτ) was selected for which the signal of the reference molecule is approaching zero.

PAK4 = biological target: T2, PAK4 (Homo sapiens, UniProt O96013); test: 19F NMR binding and competition binding screening and deconvolution against p21-activated kinase; conditions: 15 μM TFA, 1.5 μM protein
T2 construct: GST (cleaved yes); made in house; host or cells: E. coli
T2 sequence (O96013 321-572 limits assumed, species assumed): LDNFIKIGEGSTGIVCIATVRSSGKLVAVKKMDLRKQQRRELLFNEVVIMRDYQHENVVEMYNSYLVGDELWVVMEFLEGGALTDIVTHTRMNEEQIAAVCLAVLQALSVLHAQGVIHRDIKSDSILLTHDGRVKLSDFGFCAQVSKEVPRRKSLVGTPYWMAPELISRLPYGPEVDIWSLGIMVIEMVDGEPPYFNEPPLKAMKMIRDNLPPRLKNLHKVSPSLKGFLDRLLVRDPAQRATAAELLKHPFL
Protocol: as §1
The signal of the non-interacting molecule represents an internal reference that can be used for calibrating with a single experiment the changes in the signal of the spy molecule. […] It should be noted that some compounds in the screening may contain traces of TFA.

human serum albumin [2] = biological target: T1, human serum albumin; test: Isothermal titration calorimetry with HSA; type: binding; set-up: purchased Sigma A-3782
Protocol: Isothermal titration calorimetry experiments were performed using an OMEGA titrating microcalorimeter from Microcal, Inc. (Northampton, Mass.). The titrating microcalorimeter consisted of a sample and reference cell held in an adiabatic enclosure. The reference cell was filled with PBS. […] Analyte at 0.8 mM in the same buffer was held in a 250 μL syringe. Thirty injections (8 μL each and 12 seconds/injection) of analyte were made by a computer controlled stepper motor into the sample cell held at 25° C. The syringe stir rate was 400 rpm. Heat adsorbed or released with each injection was measured by a thermoelectric device connected to a Microcal nanovolt preamplifier. Titration isotherms for the binding interactions were comprised of the differential heat flow for each injection. Heat of dilution obtained by injecting analyte into PBS was negligible. Binding isotherms were fit to a single binding site model (T. Wiseman et al., Anal. Biochem., 179, 131-137 (1989)) using an iterative nonlinear least-squares algorithm included with the instrument.

Question: With `Cc1ccc2[nH]cc(CC(N)C(=O)O)c2c1` (centres unmarked) [5-CH3 D,L Trp] as the compound, how does the “effect on the 19F signal of the spy molecule (3) (displacement from HSA)” value (human serum albumin [1]; 600 nM HSA, 50 μM (3), 25 μM (2), 50 μM 5-CH3 D,L Trp and sucrose, 25 μM (4)) read?
Answer: do not alter the spectrum of the spy molecule

Question: With `O=C(O)C(F)(F)F` [trifluoroacetic acid (TFA), trifluoroacetic acid] as the compound, how does the “interaction with the protein (19F spectra in absence and presence of protein)” value (PAK4) read?
Answer: non-interacting

Question: How did the “evidence of binding to HSA by ITC” value (human serum albumin [2]; 8 μL injections of 800 μM into 30 μM HSA) turn out when `FC(F)(F)c1nnc(N2CCNCC2)s1` [(2), 1-[5-(trifluoromethyl)1,3,4-thiadiazol-2-yl]piperazine] was run?
Answer: did not find any evidence of binding to HSA

Question: `O=C(O)c1cccc(F)c1O` [(3), 2-hydroxy 3-fluorobenzoic acid] was tested. Which Kd (human serum albumin [2]; HSA in PBS + 2% DMSO, 25° C., single binding site model, read-out: ITC derived KD) did it give?
Answer: 41 ± 3.3 µM

Question: What about the Kd (human serum albumin [1]; KD^app, apparent KD of (3), 50 μM, with 25 μM (4) and 0.6 μM HSA) of the same compound?
Answer: 327 µM and 300 µM
